Assay results as given in US5627171A, “Sphingosine-1-phosphate/trimethylsphingosine composition” (Oncomembrane, Inc., priority 1994, dated 1997).
Where two headings read alike, the source gives them in different places.

Legend:
[1] = test system: tumor cells; test: Experimental metastasis model: intravenous injection of tumor cells, lung tumor colonies; format: in vivo; details: tumor cells i.v.; number of lung tumor colonies
Description: (§1) In either model, the number of lung tumor colonies is ascertained macroscopically and microscopically following a course of repeated liposome administration.

[2] = test system: protein kinase C; parameters: key: +++: + graded effectiveness; ++: + graded effectiveness; + graded effectiveness; - not effective; details: cited from earlier work
[3] = test system: B16BL6 melanoma cells; parameters: key: +++: + graded effectiveness; ++: + graded effectiveness; + graded effectiveness; - not effective; details: cited from earlier work
[4] = test system: platelet activation; parameters: key: +++: + graded effectiveness; ++: + graded effectiveness; + graded effectiveness; - not effective; details: cited from earlier work
[5] = test system: BL6 cell line; test: Spontaneous metastasis model: subcutaneous BL6 cells, lung colonization; format: in vivo; details: mice, BL6 cells s.c.; liposomes i.v. on days 5, 10, 15, 20, 25, 30; primary tumor excised day 21; assessed day 35
Procedure: As an example, mice were injected subcutaneously with the metastatic and invasive BL6 cell line (Hart et al., Amer. J. Path., 97, 587, 1979; Poote et al., Canc. Res., 42, 2770, 1982) (1×10^5 cells in 0.05 ml of Dulbecco-modified Eagle's medium). A single intravenous injection of the 10:1 liposomal TMS/Sph-1-P composition described hereinabove was administered on days 5, 10, 15, 20, 25 and 30. The primary tumor was excised on day 21 and lung colonization was assessed on day 35. […] Controls comprised liposomes containing TMS alone, liposomes containing Sph-1-P alone, liposomes containing medium or medium alone with no liposomes.
Then the instant composition encapsulated in liposomes is administered to the hosts, see FIG. 9A.
as §1

[6] = preincubation with free derivative

SMILES	Effect in the experimental metastasis model [1]	PKC inhibition [2]	Inhibition of metastasis ([3]; free derivative and liposomal formulation were used)	Inhibition of PA [4]	Inhibition of metastasis ([3]; liposomal formulation was used)	Inhibition of metastasis [3, 6]	Inhibition of metastasis ([3]; no footnote on formulation)	Lung colony number (lung colonization) [5]
CCCCCCCCCCCCC/C=C/[C@@H](O)[C@H](CO)[N+](C)(C)C [TMS, N,N,N-trimethylsphingosine]	strong effect	+++	+++	+++				
CCCCCCCCCCCCCCC[C@@H](O)[C@H](CO)[N+](C)(C)C [DHTMS]		+++		++	+			
C[N+](C)(C)[C@@H](CO)[C@H](O)c1ccccc1 [NTPS]		-		-		-		
CCCCCCCCCCCCCC#C[C@@H](O)[C@H](CO)[N+](C)(C)C [4-alkyn-TMS]		+++		++			+	
CCCCCCCCCCCCC/C=C/[C@@H](O)[C@@H](N)COP(=O)(O)O [Sph-1-P, sphingosine-1-phosphate]								no different in effect from medium alone or liposomes containing medium only
CCCCCCCCCCCCCC(F)/C=C/[C@H](CO)[N+](C)(C)C (some centres unmarked) [5F-TMS]		+++		+++			+++	
COC(=O)CCCCCCCCCCCC/C=C/[C@@H](O)[C@H](CO)[N+](C)(C)C [Methylcarboxy TMS]		-		-		-		
C[N+](C)(C)[C@@H](CO)[C@H](O)/C=C/CCCCCCCCCCCCC(=O)O [Carboxy TMS]		-		-		-		
